Marks after values point to notes of the source that are not given here.
Key:
Hep G2 cells = assay: Cell viability, MTT colorimetric assay; type: cell-based; conditions: Hep G2, 48 h
Method: The cell line was grown in RPMI-1640 medium supplemented with L-glutamine 2 mM, HEPESNa 25 mM, penicillin 100 U/mL, streptomycin 100 μg/mL and 10% phosphate-buffered saline (FBS) at 37 °C in a humidified atmosphere containing 5% CO2. Hep G2 cells were seeded at 1 × 10^6 cells/mL and sub cultured every 2–3 days after 60–80% confluence was reached. […] For each experiment, the cells were treated separately with increasing concentrations of silibinin derivatives (0, 25, 50, 75, 100, 125, 150, 175 and 200 μM) and incubated for 48 h.
To measure cell viability, the 3-(4,5-dimethylthiazol-2-yl)-2,5-diphenyl tetrazolium bromide (MTT) colorimetric assay was performed as published ([32], [33]). Briefly, Hep G2 cells were seeded onto 96 flat bottom well plates (50 × 10^3 cells/well) and grown overnight. After the incubation period with silibinin isomers, cells were washed twice with phosphate-buffered saline solution and incubated with MTT solution at a final concentration of 0.5 mg/mL for 3 h and then lysed in dimethyl sulfoxide. Optical density was measured at 540 nm and the background absorbance measured at 660 nm was subtracted. Each experiment was replicated separately for three times.

caspase-3 = assay: Caspase-3 activity, colorimetric substrate Ac-DEVD-pNA; type: cell-based, human; conditions: Hep G2, 48 h, control 0.38
Method: (§1) The cell line was grown in RPMI-1640 medium supplemented with L-glutamine 2 mM, HEPESNa 25 mM, penicillin 100 U/mL, streptomycin 100 μg/mL and 10% […] (FBS) at 37 °C in a humidified atmosphere containing 5% CO2. Hep G2 cells were seeded at 1 × 10^6 cells/mL and sub cultured every 2–3 days after 60–80% confluence was reached. To prepare the lysates cells attached to the culture plate were scraped off with a cell scraper and collected in a 1.5 mL tube by centrifugation. The cell pellets were rinsed with PBS, suspended in sterile water, and then lysed by sonication. For each experiment, the cells were treated separately with increasing concentrations of silibinin derivatives (0, 25, 50, 75, 100, 125, 150, 175 and 200 μM) and incubated for 48 h.
(§2) The activities of caspase-3 and 9 were measured using colorimetric substrates. Cells were added to a lysis buffer (100 mM HEPES [pH 7.5], 0.1% CHAPS, 1 mM PMSF, 10 mM MDTT, 1 mM EDTA) and placed on ice for 30 min. After the cells were centrifuged at 10,000 × g for 10 min at 4 °C, 50 μg of protein from the supernatants was added to each of the caspase substrates. The colorimetric substrates for caspase-3 and 9 were Ac-DEVD-pNA (Asp-Glu-Val-Asp-pNA) and Ac-LEHD-pNA (N-acetyl-Leu-Glu-His-Asp-pNA), respectively. After a 2 h incubation, to measure p-nitroanilide absorbance was determined at 405 nm ([34]).

caspase-9 = assay: Caspase-9 activity, colorimetric substrate Ac-LEHD-pNA; type: cell-based, human; conditions: Hep G2, 48 h, control 0.26
Method: as §1, §2

[1] = system: Neutral sphingomyelinase (NSMase); assay: NSMase activity assay (Amplex Red kit); type: cell-based, human; conditions: for NSMase activity in comparison with control: Hep G2, 125 µM and higher concentrations
Method: as §1
Amplex™ Red NSMase Assay Kit (AAT Bioquest®, Inc. product no: 13620) was used to determine NSMases activity. The kit uses Amplite™ Red as a colorimetric probe to indirectly quantify the phosphocholine produced from the hydrolysis of sphingomyelin by NSMase.
Cells were washed with ice cold PBS and homogenized in neutral lysis buffer (20 mM Tris–HCl pH 7.4, 2 mM EDTA, 5 mM EGTA, 1 mM PMSF, 1% protein cocktail inhibitor and 1 mM sodium orthovanadate) for NSMase assays. Samples were kept on ice 15 min and centrifuged at 14,000 × g for 20 min at 4 °C. 100 µL of each supernatant fraction were incubated at 37 °C for 1hour with working solution. The fluorescence count of produced resorophine in the previous step was measured with a fluorescence micro plate reader by using excitation at 540 nm and emission at 590 nm ([36]).

[2] = biological target: T1, glucosyl ceramide synthase (GCS) (Homo sapiens, UniProt Q16739); assay: GCS activity assay (C6-NBD-ceramide, HPLC); type: cell-based; conditions: for GCS activity, effect of treatment: Hep G2, 0-200 µM
T1 construct: endogenous in cells; host or cells: Hep G2
T1 sequence (Q16739 1-394): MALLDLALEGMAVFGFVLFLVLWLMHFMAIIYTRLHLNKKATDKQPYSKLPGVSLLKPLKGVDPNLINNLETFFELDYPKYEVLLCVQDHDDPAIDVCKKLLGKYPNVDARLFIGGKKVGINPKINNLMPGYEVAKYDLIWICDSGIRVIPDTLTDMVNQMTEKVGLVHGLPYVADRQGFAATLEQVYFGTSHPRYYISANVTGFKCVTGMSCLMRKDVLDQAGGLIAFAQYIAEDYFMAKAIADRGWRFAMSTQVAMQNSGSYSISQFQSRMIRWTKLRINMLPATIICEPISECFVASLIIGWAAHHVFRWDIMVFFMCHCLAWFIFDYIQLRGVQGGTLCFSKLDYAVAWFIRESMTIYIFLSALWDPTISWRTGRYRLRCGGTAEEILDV
Method: as §1
To determine GCS activities, the fluorescent acceptor substrate C6-4-nitrobenzo-2-oxa-1,3-diazole (NBD)-ceramide and a normal-phase HPLC were used. Acceptor substrate, 50 pM of C6-NBD-Cer and 6.5 nM of lecithin were mixed in 100 µL of ethanol and then the solvent was evaporated. Next, 10 µL of water was added and the mixture was sonicated to form liposomes. For the GCS assay, 50 µL of reaction mixture contains 500 µM UDP-Glc, 1mM EDTA, 10 µL of C6-NBD-Cer liposome and 20 µL of an appropriate amount of enzyme in lysis buffer. Addition of conduritol B epoxide (CBE) at 2.5 mM is effective at inhibiting the glycosidase activity. Standard assays were carried out at 37 °C for 1 h. The reaction was stopped by adding 200 µL of chloroform/methanol (2:1, v/v). After a few seconds of vortexing, 5 µL of 500 µM KCl was added and then centrifuged. After the organic phase had dried up, lipids were dissolved in 200 µL of isopropyl alcohol/n-hexane/H2O (55:44:1) and then transferred to a glass vial in auto sampler. A 100 µL aliquot of sample was automatically loaded onto a normal-phase column (Intersil SIL 150A-5, 4.6 x 250 mm, GL Sciences, Japan) and eluted with isopropyl alcohol/n-hexane/H2O (55:44:1) at a flow rate of 2.0 mL/min. Fluorescence was determined using a fluorescent detector (Hitachi L-7480) set to excitation and emission wavelengths of 470 and 530 nm, respectively. The fluorescent peaks were identified by comparing their retention times with those of standards ([37]).

COc1cc([C@H]2Oc3cc([C@H]4Oc5cc(O)cc(O)c5C(=O)[C@@H]4OC(=O)c4cc(O)c(O)c(O)c4)ccc3O[C@@H]2CO)ccc1O [SGA, 3-O-galloyl silybin A]
Cell viability (% of control) (Hep G2 cells; 25 micro molar): 96 + 10.5 % of control
Cell viability (% of control) (Hep G2 cells; 50 micro molar): 84 + 9.3^* % of control
Cell viability (% of control) (Hep G2 cells; 75 micro molar): 73 + 10.7^* % of control
Cell viability (% of control) (Hep G2 cells; 100 micro molar): 63 + 8.9^* % of control
Cell viability (% of control) (Hep G2 cells; 125 micro molar): 52 + 8.1^* % of control
Cell viability (% of control) (Hep G2 cells; 150 micro molar): 44 + 6.0^* % of control
Cell viability (% of control) (Hep G2 cells; 175 micro molar): 38 + 5.7^* % of control
Cell viability (% of control) (Hep G2 cells; 200 micro molar): 33 + 5.1^* % of control
Caspase-3 (ΔOD 405nm) (caspase-3; 25 micro molar): 0.35 ± 0.038 ΔOD 405nm
Caspase-3 (ΔOD 405nm) (caspase-3; 50 micro molar): 0.46 ± 0.062 ΔOD 405nm
Caspase-3 (ΔOD 405nm) (caspase-3; 75 micro molar): 0.58 ± 0.070 ΔOD 405nm
Caspase-3 (ΔOD 405nm) (caspase-3; 100 micro molar): 0.67 ± 0.084 ΔOD 405nm
Caspase-3 (ΔOD 405nm) (caspase-3; 125 micro molar): 0.83 ± 0.114 ΔOD 405nm
Caspase-3 (ΔOD 405nm) (caspase-3; 150 micro molar): 0.97 ± 0.134 ΔOD 405nm
Caspase-3 (ΔOD 405nm) (caspase-3; 175 micro molar): 1.12 ± 0.147 ΔOD 405nm
Caspase-3 (ΔOD 405nm) (caspase-3; 200 micro molar): 1.26 ± 0.164 ΔOD 405nm
Caspase-9 (ΔOD 405nm) (caspase-9; 25 micro molar): 0.23 ± 0.029 ΔOD 405nm
Caspase-9 (ΔOD 405nm) (caspase-9; 50 micro molar): 0.40 ± 0.053 ΔOD 405nm
Caspase-9 (ΔOD 405nm) (caspase-9; 75 micro molar): 0.55 ± 0.070 ΔOD 405nm
Caspase-9 (ΔOD 405nm) (caspase-9; 100 micro molar): 0.86 ± 0.136 ΔOD 405nm
Caspase-9 (ΔOD 405nm) (caspase-9; 125 micro molar): 0.69 ± 0.103 ΔOD 405nm
Caspase-9 (ΔOD 405nm) (caspase-9; 150 micro molar): 0.80 ± 0.124 ΔOD 405nm
Caspase-9 (ΔOD 405nm) (caspase-9; 175 micro molar): 1.19 ± 0.147 ΔOD 405nm
Caspase-9 (ΔOD 405nm) (caspase-9; 200 micro molar): 1.30 ± 0.167 ΔOD 405nm
NSMase activity in comparison with control [1]: considerable increase
GCS activity, effect of treatment [2]: did not indicate any significant changes

COc1cc([C@@H]2Oc3cc([C@H]4Oc5cc(O)cc(O)c5C(=O)[C@@H]4O)ccc3O[C@H]2CO)ccc1O [SB, silybin B]
Cell viability (% of control) (Hep G2 cells; 25 micro molar): 94 + 10.3 % of control
Cell viability (% of control) (Hep G2 cells; 50 micro molar): 89 + 10.5 % of control
Cell viability (% of control) (Hep G2 cells; 75 micro molar): 81 + 10.7^* % of control
Cell viability (% of control) (Hep G2 cells; 100 micro molar): 70 + 10.0^* % of control
Cell viability (% of control) (Hep G2 cells; 125 micro molar): 60 + 7.9^* % of control
Cell viability (% of control) (Hep G2 cells; 150 micro molar): 51 + 7.6^* % of control
Cell viability (% of control) (Hep G2 cells; 175 micro molar): 45 + 5.1^* % of control
Cell viability (% of control) (Hep G2 cells; 200 micro molar): 40 + 6.0^* % of control
Caspase-3 (ΔOD 405nm) (caspase-3; 25 micro molar): 0.34 ± 0.050 ΔOD 405nm
Caspase-3 (ΔOD 405nm) (caspase-3; 50 micro molar): 0.45 ± 0.060 ΔOD 405nm
Caspase-3 (ΔOD 405nm) (caspase-3; 75 micro molar): 0.58 ± 0.076 ΔOD 405nm
Caspase-3 (ΔOD 405nm) (caspase-3; 100 micro molar): 0.53 ± 0.065 ΔOD 405nm
Caspase-3 (ΔOD 405nm) (caspase-3; 125 micro molar): 0.62 ± 0.095 ΔOD 405nm
Caspase-3 (ΔOD 405nm) (caspase-3; 150 micro molar): 0.73 ± 0.105 ΔOD 405nm
Caspase-3 (ΔOD 405nm) (caspase-3; 175 micro molar): 0.82 ± 0.130 ΔOD 405nm
Caspase-3 (ΔOD 405nm) (caspase-3; 200 micro molar): 0.79 ± 0.096 ΔOD 405nm
Caspase-9 (ΔOD 405nm) (caspase-9; 25 micro molar): 0.30 ± 0.048 ΔOD 405nm
Caspase-9 (ΔOD 405nm) (caspase-9; 50 micro molar): 0.41 ± 0.055 ΔOD 405nm
Caspase-9 (ΔOD 405nm) (caspase-9; 75 micro molar): 0.47 ± 0.070 ΔOD 405nm
Caspase-9 (ΔOD 405nm) (caspase-9; 100 micro molar): 0.56 ± 0.067 ΔOD 405nm
Caspase-9 (ΔOD 405nm) (caspase-9; 125 micro molar): 0.60 ± 0.083 ΔOD 405nm
Caspase-9 (ΔOD 405nm) (caspase-9; 150 micro molar): 0.67 ± 0.105 ΔOD 405nm
Caspase-9 (ΔOD 405nm) (caspase-9; 175 micro molar): 0.81 ± 0.126 ΔOD 405nm
Caspase-9 (ΔOD 405nm) (caspase-9; 200 micro molar): 0.89 ± 0.114 ΔOD 405nm
NSMase activity in comparison with control [1]: considerable increase
GCS activity, effect of treatment [2]: dose dependent inhibition

COc1cc([C@@H]2Oc3cc([C@H]4Oc5cc(O)cc(O)c5C(=O)[C@@H]4OC(=O)c4cc(O)c(O)c(O)c4)ccc3O[C@H]2CO)ccc1O [SGB, 3-O-galloyl silybin B]
Cell viability (% of control) (Hep G2 cells; 25 micro molar): 91 + 10.0 % of control
Cell viability (% of control) (Hep G2 cells; 50 micro molar): 78 + 9.5^* % of control
Cell viability (% of control) (Hep G2 cells; 75 micro molar): 65 + 8.6^* % of control
Cell viability (% of control) (Hep G2 cells; 100 micro molar): 56 + 7.7^* % of control
Cell viability (% of control) (Hep G2 cells; 125 micro molar): 49 + 6.9^* % of control
Cell viability (% of control) (Hep G2 cells; 150 micro molar): 35 + 5.1^* % of control
Cell viability (% of control) (Hep G2 cells; 175 micro molar): 29 + 4.3^* % of control
Caspase-3 (ΔOD 405nm) (caspase-3; 25 micro molar): 0.45 ± 0.065 ΔOD 405nm
Caspase-3 (ΔOD 405nm) (caspase-3; 50 micro molar): 0.56 ± 0.070 ΔOD 405nm
Caspase-3 (ΔOD 405nm) (caspase-3; 75 micro molar): 0.62 ± 0.081 ΔOD 405nm
Caspase-3 (ΔOD 405nm) (caspase-3; 100 micro molar): 0.78 ± 0.095 ΔOD 405nm
Caspase-3 (ΔOD 405nm) (caspase-3; 125 micro molar): 0.98 ± 0.128 ΔOD 405nm
Caspase-3 (ΔOD 405nm) (caspase-3; 150 micro molar): 1.21 ± 0.160 ΔOD 405nm
Caspase-3 (ΔOD 405nm) (caspase-3; 175 micro molar): 1.53 ± 0.209 ΔOD 405nm
Caspase-3 (ΔOD 405nm) (caspase-3; 200 micro molar): 1.63 ± 0.221 ΔOD 405nm
Caspase-9 (ΔOD 405nm) (caspase-9; 25 micro molar): 0.30 ± 0.048 ΔOD 405nm
Caspase-9 (ΔOD 405nm) (caspase-9; 50 micro molar): 0.41 ± 0.053 ΔOD 405nm
Caspase-9 (ΔOD 405nm) (caspase-9; 75 micro molar): 0.46 ± 0.046 ΔOD 405nm
Caspase-9 (ΔOD 405nm) (caspase-9; 100 micro molar): 0.53 ± 0.077 ΔOD 405nm
Caspase-9 (ΔOD 405nm) (caspase-9; 125 micro molar): 0.70 ± 0.093 ΔOD 405nm
Caspase-9 (ΔOD 405nm) (caspase-9; 150 micro molar): 0.89 ± 0.108 ΔOD 405nm
Caspase-9 (ΔOD 405nm) (caspase-9; 175 micro molar): 1.18 ± 0.192 ΔOD 405nm
Caspase-9 (ΔOD 405nm) (caspase-9; 200 micro molar): 1.34 ± 0.207 ΔOD 405nm
NSMase activity with respect to control ([1]; Hep G2, all concentrations (0-200 µM)): did not exert any significant change
GCS activity, effect of treatment [2]: dose dependent inhibition
GCS activity (% of control) ([2]; Hep G2, 200 µM): 18 % of control
